Measured values: patent publication US11147219B2, “Methods and systems for growing plants using silicate-based substrates, cultivation of enhanced photosynthetic productivity and photosafening by utilization of exogenous glycopyranosides for endogenous glycopyranosyl-protein derivatives, and formulations, process and systems for the same” (Innovation Hammer, LLC, priority 2011, dated 2021)
Entries after “also recorded” stand apart in the source; their conditions may differ.

Columns and labels:
plants = assay: Relative potency of glycosides on plants (stated, no method); conditions: in vivo
radish = assay: Foliar application to radish grown hydroponically in 700 μm microbeads; format: in vivo; conditions: with 3 ppm Mn, 6 ppm Ca
Experimental: Approximately 200 grams of beads/cell filled individual 100 cc cells of plastic flats. Roots of radish are cultivated hydroponically by immersion of roots in 700 μm nmd shot, pre-moistened with buffered nutrient solution that included soluble Mn and Ca, and plants were allowed to grow for 72 h prior to treatment with aminophenyl-α-D-mannopyranoside.
4-aminophenyl-α-D-mannopyranoside was dissolved in water (APM needs first to be solubilized in a small volume (1 ml) of ethanol prior to being added into water) with 3 ppm Mn as EDTA, 6 ppm Ca as EDTA, 10% isopropyl alcohol and 1.5 g/L Pluronic L-62. A solution of the formulation was applied to radish foliage. When compared to an identical control formulation without the aminophenyl-α-D-mannopyranoside, the above formulation provided a 20% root increase. For aminophenyl-α-D-mannopyranoside, the proper dose for radish is between 1 to 100 μg per plant and preferably between 5 to 50 μg per plant. This is the equivalent to an application of 75 to 100 gallons per acre at a preferred volume of 100 gallons per acre of up to 2 gm/liter.

Crocus = assay: Rooted Crocus cultivated in 700 μm silicate microbeads, treated with formulation; format: in vivo; conditions: 0.3 mM APM with 3 ppm Mn, 6 ppm Ca; Crocus in 700 μm microbeads
Experimental: Individual plants were started from seeds, bulbs, or vegetative clones, inserted into containers of pre-moistened microbeads. Seedlings included ryegrass and corn; bulbs were of Crocus and paperwhite narcissus; and vegetative cuttings were from Coleus. Seeds generally germinated and were selected according to day of emergence of first roots as control and treatment sets. Roots were treated thereafter.
Plants were cultivated under controlled environmental conditions as follow: GE Ecolux® plant and aquarium F40T12 fluorescent illumination, photosynthetically active radiation (PAR) of 100 μEin·m^−2·s^−1, diel cycle of 16:8 h light:dark, 28:26° C., 10% to 20% relative humidity. Indoxyl glycopyranoside (IG) was formulated in water and applied and controls were given equal volumes of water without IG. […] Clear plastic 500 cc containers, perforated for drainage, were filled to a depth of 10 cm with up to 900 grams of microbeads each. Initially, basal plates of bulbs were immersed 1 cm into moistened 700 μm nmd silicate beads to initiate rooting. […] Controls were treated with addition of 0.1 ml water to their media. After 8 h uptake of the treatments, fertigation resumed in a manner consistent with pH-control. […]
For all experiments, at 7 d to 14 d after treatment, microbeads were saturated with water. […] For paperwhites, volumes of entire roots were measured by displacement of water in glass beakers.

[1] = system: radish "Cherry Bell" Raphanus sativus L.; assay: Greenhouse foliar treatment of radish, root dry weight; format: in vivo; conditions: for active concentration applied for growth response: foliar, radish
Experimental: Plant responses to formulations of an alkyl-α-D-mannopyranose and an electron donating-aryl-α-D-mannopyranose were consistent with preferred binding tendencies to displace glucose from storage. Plants were maintained in automated greenhouses controlled for temperature, light and circulation. Environmental conditions during the course of the studies averaged 13:11 hour L:D photoperiod, 25°:20° C. day:night and 20% to 80% relative humidity. Sunlight was supplemented with electrical illumination to achieve photosynthetically active radiation levels ranging from 350 to 600 μmol photons·m^−2·s^−1 at the level of the phylloplane. Solutions for treated and control plants were applied within an hour, otherwise subjecting all plants to identical conditions consistent with good laboratory practices. Solutions applied to controls included nutrients and surfactants identical to the treatment solution, but without the active compound. General supplementation of foliar formulations included the following: 10-100 mM ammonium salt; 1-6 ppm manganese, Mn-EDTA; and 5-10 ppm calcium, Ca-EDTA. For example, foliar solutions of 0.3 mM p-aminophenylmannopyranoside, hereafter referred to as APM, were supplemented with 23 mM ammonium sulfate, (NH4)2SO4, 3 ppm Mn and 6 ppm Ca; and Nutrient Control contained 23 mM (NH4)2SO4, 3 ppm Mn and 6 ppm Ca. The foliar concentrations of Mn and Ca were higher than those specified previously because of the low volumes of foliar applications relative to hydroponic root immersion volumes, and they were particularly effective in combination with foliar applications of compounds because they supported high rates of productivity in the treated plants without phytotoxicity. Compounds for experimentation included the following: methyl-α-D-mannopyranoside (MeM), APM, and methyl-α-D-glucopyranoside (MeG). All foliar solutions were formulated with 1 gm/liter surfactant blend consisting of 0.5 gram DowCorning Q5211 dispersed into 1.5 grams BASF Pluronic L62. As a matter of course, untreated controls that foliar nutrients and wetting agents were not introducing artifacts. The standard volume for foliar application of experimental treatments was 200 liters/hectare. Identical volumes of foliar spray per tray of plant cultures were applied mechanically in a single pass. Controls were placed in the same location and given identical irrigation and handling as the treated plants. To compare the effects of treatments under tightly controlled conditions, plants were cultured, harvested, cleaned and weighed as per previously described methods. Treated plants were statistically analyzed in comparisons against controls. Each survey population held sufficient replicate sample numbers to make meaningful statistical analyses utilizing SPSS® software. Significance was determined at the 95% confidence interval (CI) of the difference. Counts of population numbers are denoted as “n” values. For experiments, radish “Cherry Bell” Raphanus sativus L., a root crop was planted and treated. […] Therefore, least concentrations were selected for statistical experimentation; and 200 l/ha foliar 1 mM MeM or 0.3 mM APM in nutrient-supplemented formulations were applied to 5 cm tall sprouts; while, Nutrient Controls were given foliar applications of identical solutions without the α-D-glycopyranosides; and no foliar solutions were applied to untreated controls which were otherwise identically cultivated and irrigated. For our quantification experiments, when improvements of root productivity over those of nutrient controls were visibly discernible 12 d after treatment, all populations of controls and treatments were harvested, and individual dry weights of treatment and control populations were analyzed.

Radish seedlings = assay: Radish seedling assay, immersion in nutrient solution with α-mannosides; format: in vivo; conditions: for growth response compared to Nutrient Control (visual): 1 mM TAM, 100 μM MP, 25 μM to 500 μM MeM, 10 μM APM
Experimental: Plants were cultured in research facilities and consistency of response to treatments was achieved by supplementation with chelated calcium and manganese. All plants were regularly given modified Hoagland water-culture nutrients. […] Controls were placed in the same location and all plants were given the same irrigation, fertilizers, and handling, but without the experimental compounds. Plants were matched to controls and treated within a week of emergence of cotyledon and true leaves. The performance of compounds was evaluated by comparing means of individual dry weights of shoots and roots. Statistics applied two-tailed Student's t-test with p-values significant within 95% confidence intervals. Counts of populations are “n” values and standard error is denoted “±SE.” Specialty chemicals included the following: tetramethyl-β-D-glucoside (TMG); tetraacetyl-D-glucopyranose (TAG); pentaacetyl-α-D-mannopyranose (MP); p-amino-phenyl-α-D-mannoside (APM); methyl-α-D-mannoside (MeM) and methylglucoside (MeG). MPG was synthesized. 2,3,4,6-tetra-O-acetyl-D-mannopyranose (αβ) was utilized. As required, MP and APM were dissolved in a lower aliphatic alcohol prior to dilution in aqueous media.
Assay—Radish seedlings were treated with α-mannosides after emergence of radicles. Seedlings were matched and transferred to Nutrient Control or treatment solutions. Assays were maintained under environmental conditions as follow: Photosynthetically active radiation 100 μEin·m^−2·sec^−1, diel cycle of 16:8 h light:dark, 26:26° C.

[2] = system: radish (Raphanus sativus L., cultivar "Cherry Bell"); assay: Radish seed germination and seedling growth, nutrient omission media; format: in vivo
Experimental: Treatment of seeds and seedlings by aqueous solutions is exemplified by mannosides supplemented with soluble divalent cations in complete mannosides formulations. […] Benefits of such exemplary seed priming methods are as follows: Germination and early growth of radish (Raphanus sativus L., cultivar “Cherry Bell”) and Swiss Chard (Beta vulgaris subspecies cicla L., cultivar “Fordhook® Giant”) were tested for response to α-mannosides supplemented with Ca^2+ and/or Mn^2+. Rapid assays of radish seed germination and growth used hydroponic cultures with no solid medium; longer experiments with Swiss Chard used a 2-5 mm substratum of 700 μm diameter glass microbeads. Neutralization of glass microbeads may be undertaken with dilute mildly acidic solution titrated to pH 6; for example, with mineral acids such as hydrochloric acid, sulfuric acid, nitric acid, and the like; organic acids such as uronic, citric, malic, lactic, salicylic, ascorbic, succinic, oxaloacetic, ketoglutaric, fumaric acids, and amino acids, and the like; artificial biological buffering agents such as TRIS, BIS TRIS, MES, MOPS, HEPES, and the like; fertilizers; and most preferably, phosphates; and the most highly preferred compounds are combinations of compounds in a pH 6-buffer that provide major nutrients for plants, such as MAP with DKP or DAP with MKP; and the like. When test medium was added, the glass microbeads formed an even layer, drawing liquid to the surface by capillary action. Seeds were examined to exclude aberrantly large, small, or damaged seeds, and were placed on the surface of the substratum. For experiments using post-germination seedlings, seeds were germinated in deionized water prior to exposure to nutrient media. A seed with an emerged radicle >1 mm was recorded as germinated, and germinated seeds were counted daily, until 95% germination. There was no visible evidence of either desiccation or waterlogging effects. Glass microbeads were removed by immersion and agitation in water, or manually with fine forceps. Harvested plants were oven-dried to determine dry weight. Treatment and control solutions were prepared by dissolving nutrients in deionized ultrapure water.
Growth media were based on omission or inclusion of glycosides and targeted divalent cations. Triose is the abbreviation for α-1,3-α-1,6 mannotriose) and MEM is methyl-α-D-mannoside. Terminology used herein indicates the omission or inclusion of nutrients: 000=control medium with no glycoside, Ca^2+ or Mn^2+; MeMOO=medium with MeM, but no Ca^2+ or Mn^2+; MeMCaO=medium with MeM and Ca^2+, but no Mn^2+, OCaMn=medium with no MeM, but with Ca^2++Mn^2+; and so on. Similar terminology is used for media containing triose. Results cited are means±SE. […]

OC[C@H]1O[C@H](O[C@H]2[C@H](O)[C@@H](O)C(O)O[C@@H]2CO)[C@H](O)[C@@H](O)[C@@H]1O (mixture of isomers) [maltose]
potency relative to alpha-MeG (plants): lower potency | potency relative to beta-MeG (plants): 9 ×

Nc1ccc(O[C@H]2O[C@H](CO)[C@@H](O)[C@H](O)[C@@H]2O)cc1 [APM, 4-amino-phenyl-α-D-mannopyranoside]
root increase compared to identical control formulation (radish): 20% | root and shoot development / productivity compared to Control (Crocus): clearly advanced productivity; also recorded: advanced root and shoot development | root mean dry weight over the Nutrient Control ([1]; foliar 0.3 mM with nutrients): significant (n=72; p=0.003) increase | root mean dry weight increase over controls ([1]; foliar 0.3 mM, 200 l/ha, harvest 12 d after treatment, n=72, p=0.003): approximately 20% | active concentration applied for growth response [1]: 0.3 mM | mean dry weight of whole plants (Radish seedlings; 5 μM, 48 h): 9.4 mg | difference of mean dry weight from the Nutrient Control (Radish seedlings; 5 μM, 48 h, p=0.06): not significantly different; also recorded: no significant difference | mean dry weight of whole plants (Radish seedlings; 10 μM, 48 h): 10.3 mg | enhancement of mean dry weight over Nutrient Control (Radish seedlings; 100 μM, 48 h): 10% | mean dry weight of whole plants (Radish seedlings; 100 μM, 48 h): 11 mg | growth response compared to Nutrient Control (visual) (Radish seedlings; 48 h): advanced growth

CC(=O)OC[C@H]1O[C@H](OC(C)=O)[C@@H](OC(C)=O)[C@@H](OC(C)=O)[C@@H]1OC(C)=O [MP, pentaacetyl-α-D-mannopyranose]
mean dry weight of whole plants (Radish seedlings; 100 μM, 48 h): 8.2 mg | growth response compared to Nutrient Control (visual) (Radish seedlings; 48 h): advanced growth responses | potency compared with the mixed anomers (Radish seedlings; effective doses 100 μM MP and 1 mM TAM): higher potency

CO[C@H]1O[C@H](CO)[C@@H](O)[C@H](O)[C@H]1O [MeG, methyl-α-D-glucopyranoside, reference compound]
productivity over nutrient and untreated controls ([1]; foliar 129 mM with Ca, Mn and ammoniacal nitrogen): consistently increased productivities | active concentration applied for growth response [1]: 129 mM

CC(=O)OC[C@H]1OC(O)[C@@H](OC(C)=O)[C@@H](OC(C)=O)[C@@H]1OC(C)=O (stereo partly drawn) [TAM, 2,3,4,6-tetra-O-acetyl-D-mannopyranose (αβ)]
mean dry weight of whole plants (Radish seedlings; 100 μM, 48 h): 8.1 mg | difference of mean dry weight from the Nutrient Control (Radish seedlings; 100 μM, 48 h, p=0.11): no significant difference | mean dry weight of whole plants (Radish seedlings; 1 mM, 48 h): 8.8 mg | growth response compared to Nutrient Control (visual) (Radish seedlings; 48 h): advanced growth responses

OC[C@H]1O[C@H](OC[C@H]2OC(O)[C@@H](O)[C@@H](O[C@H]3O[C@H](CO)[C@@H](O)[C@H](O)[C@@H]3O)[C@@H]2O)[C@@H](O)[C@@H](O)[C@@H]1O (stereo partly drawn) [triose, α-1,3-α-1,6 mannotriose]
seedling growth compared with no triose ([2]; 1 μM triose, lacking Ca2+): comparable to seedlings grown with no triose | mean dry weight compared with medium with no triose ([2]; 0.3, 1 or 10 μM triose with Mn2+ and Ca2+, 1 day treatment, second day): significantly greater | concentration at which no growth enhancement was observed ([2]; radish seedlings, complete media): less than 0.3 μM
